# Experimental data reported in PubChem BioAssay (NCI).
#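 How tested: cells in 96-well plates exposed to compound for 48 hours at five concentrations. GI50: concentration for 50% inhibition of growth. TGI is the concentration that stops growth completely.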
# How the values were obtained:
# Test in all cases: NCI-60 cell line screen, 48 h
# [1] = system: 786-0 renal
# [2] = system: A498 renal
# [3] = system: A549 NSCLC
# [4] = system: ACHN renal
# [5] = system: BT-549 breast
# [6] = system: CAKI-1 renal
# [7] = system: CCRF-CEM leukemia
# [8] = system: COLO 205 colon
# [9] = system: DU-145 prostate
# [10] = system: EKVX NSCLC
# [11] = system: HCC-2998 colon
# [12] = system: HCT-116 colon
# [13] = system: HCT-15 colon
# [14] = system: HL-60(TB) leukemia
# [15] = system: HOP-62 NSCLC
# [16] = system: HOP-92 NSCLC
# [17] = system: HS 578T breast
# [18] = system: HT29 colon
# [19] = system: IGROV1 ovarian
# [20] = system: K-562 leukemia
# [21] = system: KM12 colon
# [22] = system: LOX IMVI melanoma
# [23] = system: M14 melanoma
# [24] = system: MALME-3M melanoma
# [25] = system: MCF7 breast
# [26] = system: MDA-MB-435
# [27] = system: MDA-MB-468 breast
# [28] = system: MOLT-4 leukemia
# [29] = system: NCI-H226 lung
# [30] = system: NCI-H23 lung
# [31] = system: NCI-H460 lung
# [32] = system: NCI-H522 lung
# [33] = system: NCI/ADR-RES ovarian
# [34] = system: OVCAR-3 ovarian
# [35] = system: OVCAR-4 ovarian
# [36] = system: OVCAR-5 ovarian
# [37] = system: OVCAR-8 ovarian
# [38] = system: PC-3 prostate
# [39] = system: RPMI-8226 leukemia
# [40] = system: RXF 393 renal
# [41] = system: SF-268 CNS
# [42] = system: SF-295 CNS
# [43] = system: SF-539 CNS
# [44] = system: SK-MEL-2 melanoma
# [45] = system: SK-MEL-28 melanoma
# [46] = system: SK-MEL-5 melanoma
# [47] = system: SK-OV-3 ovarian
# [48] = system: SN12C renal
# [49] = system: SNB-19 CNS
# [50] = system: SNB-75 CNS
# [51] = system: SW-620 colon
# [52] = system: T-47D breast
# [53] = system: TK-10 renal
# [54] = system: U251 CNS
# [55] = system: UACC-257 melanoma
# [56] = system: UACC-62 melanoma
smiles,measurement,setting,value
CO[C@@H]1CSSC1Cn1nc(-c2ccc(Oc3ccccc3)cc2)c2c(N)ncnc21 (some centres not stated),GI50,[1],> 100 µM
same,TGI,[1],> 100 µM
same,GI50,[2],99 µM
same,TGI,[2],> 100 µM
same,GI50,[3],13.9 µM
same,TGI,[3],> 100 µM
same,GI50,[4],12.3 µM
same,TGI,[4],> 100 µM
same,GI50,[5],> 100 µM
same,TGI,[5],> 100 µM
same,GI50,[6],> 100 µM
same,TGI,[6],> 100 µM
same,GI50,[7],4.29 µM
same,TGI,[7],> 100 µM
same,GI50,[8],53.2 µM
same,TGI,[8],> 100 µM
same,GI50,[9],> 100 µM
same,TGI,[9],> 100 µM
same,GI50,[10],7.29 µM
same,TGI,[10],> 100 µM
same,GI50,[11],21 µM
same,TGI,[11],> 100 µM
same,GI50,[12],5.36 µM
same,TGI,[12],> 100 µM
same,GI50,[13],33.3 µM
same,TGI,[13],> 100 µM
same,GI50,[14],6.13 µM
same,TGI,[14],> 100 µM
same,GI50,[15],16.4 µM
same,TGI,[15],> 100 µM
same,GI50,[16],> 100 µM
same,TGI,[16],> 100 µM
same,GI50,[17],> 100 µM
same,TGI,[17],> 100 µM
same,GI50,[18],6.82 µM
same,TGI,[18],> 100 µM
same,GI50,[19],> 100 µM
same,TGI,[19],> 100 µM
same,GI50,[20],3.6 µM
same,TGI,[20],> 100 µM
same,GI50,[21],8.73 µM
same,TGI,[21],> 100 µM
same,GI50,[22],43.9 µM
same,TGI,[22],> 100 µM
same,GI50,[23],1.99 µM
same,TGI,[23],4.35 µM
same,GI50,[24],62.7 µM
same,TGI,[24],> 100 µM
same,GI50,[25],6.87 µM
same,TGI,[25],> 100 µM
same,GI50,[26],3.19 µM
same,TGI,[26],10.2 µM
same,GI50,[27],5.18 µM
same,TGI,[27],86.5 µM
same,GI50,[28],2.24 µM
same,TGI,[28],6.52 µM
same,GI50,[29],39.7 µM
same,TGI,[29],> 100 µM
same,GI50,[30],> 100 µM
same,TGI,[30],> 100 µM
same,GI50,[31],3.43 µM
same,TGI,[31],76.5 µM
same,GI50,[32],41.8 µM
same,TGI,[32],> 100 µM
same,GI50,[33],> 100 µM
same,TGI,[33],> 100 µM
same,GI50,[34],63.5 µM
same,TGI,[34],> 100 µM
same,GI50,[35],> 100 µM
same,TGI,[35],> 100 µM
same,GI50,[36],51.5 µM
same,TGI,[36],> 100 µM
same,GI50,[37],> 100 µM
same,TGI,[37],> 100 µM
same,GI50,[38],58.7 µM
same,TGI,[38],> 100 µM
same,GI50,[39],43.3 µM
same,TGI,[39],> 100 µM
same,GI50,[40],50.3 µM
same,TGI,[40],> 100 µM
same,GI50,[41],8.22 µM
same,TGI,[41],> 100 µM
same,GI50,[42],62 µM
same,TGI,[42],> 100 µM
same,GI50,[43],> 100 µM
same,TGI,[43],> 100 µM
same,GI50,[44],22.8 µM
same,TGI,[44],> 100 µM
same,GI50,[45],2.87 µM
same,TGI,[45],21 µM
same,GI50,[46],14.8 µM
same,TGI,[46],> 100 µM
same,GI50,[47],3.25 µM
same,TGI,[47],24.6 µM
same,GI50,[48],> 100 µM
same,TGI,[48],> 100 µM
same,GI50,[49],> 100 µM
same,TGI,[49],> 100 µM
same,GI50,[50],> 100 µM
same,TGI,[50],> 100 µM
same,GI50,[51],57.9 µM
same,TGI,[51],> 100 µM
same,GI50,[52],6.14 µM
same,TGI,[52],> 100 µM
same,GI50,[53],37.9 µM
same,TGI,[53],> 100 µM
same,GI50,[54],> 100 µM
same,TGI,[54],> 100 µM
same,GI50,[55],16.2 µM
same,TGI,[55],> 100 µM
same,GI50,[56],14.5 µM
same,TGI,[56],> 100 µM
